Measurements: patent publication US20240024488A1, “COMPOUNDS AND USES THEREOF” (Foghorn Therapeutics Inc., priority 2020, published 2024)

How the values were obtained:
HiBit-BRM fusion protein = biological target: T1, HiBit-BRM fusion protein (Homo sapiens, UniProt P51531); test: HiBiT-BRM cell-based degradation assay (Nano-Glo HiBiT Lytic Detection, 24 h); settings: HeLa cell line expressing HiBiT-BRM; for DC50: read-out: BRM HiBit Degradation IC50
T1 construct: expressed in transfected cells
Outline: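 Percent BRM loss was derived from HiBiT luminescence relative to DMSO-treated cells and cells given 2 μM of a known BRM/BRG1 degrader. Treatment lasted 24 h in HiBiT-BRM HeLa cells, with a top final concentration of 30 μM.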

[1] = biological target: T2, HiBit-BRG1 fusion protein (Homo sapiens, UniProt P51532); test: HiBiT-BRG1 cell-based degradation assay (Nano-Glo HiBiT Lytic Detection, 24 h); settings: HeLa cell line expressing HiBit-BRG1 and LgBit; for Dmax: read-out: BRG1 HiBit Degradation Maximum (%); for DC50: read-out: BRMG1 HiBit Degradation IC50
T2 construct: expressed in transfected cells
T2 sequence (P51532 whole entry, the tested form may be a part): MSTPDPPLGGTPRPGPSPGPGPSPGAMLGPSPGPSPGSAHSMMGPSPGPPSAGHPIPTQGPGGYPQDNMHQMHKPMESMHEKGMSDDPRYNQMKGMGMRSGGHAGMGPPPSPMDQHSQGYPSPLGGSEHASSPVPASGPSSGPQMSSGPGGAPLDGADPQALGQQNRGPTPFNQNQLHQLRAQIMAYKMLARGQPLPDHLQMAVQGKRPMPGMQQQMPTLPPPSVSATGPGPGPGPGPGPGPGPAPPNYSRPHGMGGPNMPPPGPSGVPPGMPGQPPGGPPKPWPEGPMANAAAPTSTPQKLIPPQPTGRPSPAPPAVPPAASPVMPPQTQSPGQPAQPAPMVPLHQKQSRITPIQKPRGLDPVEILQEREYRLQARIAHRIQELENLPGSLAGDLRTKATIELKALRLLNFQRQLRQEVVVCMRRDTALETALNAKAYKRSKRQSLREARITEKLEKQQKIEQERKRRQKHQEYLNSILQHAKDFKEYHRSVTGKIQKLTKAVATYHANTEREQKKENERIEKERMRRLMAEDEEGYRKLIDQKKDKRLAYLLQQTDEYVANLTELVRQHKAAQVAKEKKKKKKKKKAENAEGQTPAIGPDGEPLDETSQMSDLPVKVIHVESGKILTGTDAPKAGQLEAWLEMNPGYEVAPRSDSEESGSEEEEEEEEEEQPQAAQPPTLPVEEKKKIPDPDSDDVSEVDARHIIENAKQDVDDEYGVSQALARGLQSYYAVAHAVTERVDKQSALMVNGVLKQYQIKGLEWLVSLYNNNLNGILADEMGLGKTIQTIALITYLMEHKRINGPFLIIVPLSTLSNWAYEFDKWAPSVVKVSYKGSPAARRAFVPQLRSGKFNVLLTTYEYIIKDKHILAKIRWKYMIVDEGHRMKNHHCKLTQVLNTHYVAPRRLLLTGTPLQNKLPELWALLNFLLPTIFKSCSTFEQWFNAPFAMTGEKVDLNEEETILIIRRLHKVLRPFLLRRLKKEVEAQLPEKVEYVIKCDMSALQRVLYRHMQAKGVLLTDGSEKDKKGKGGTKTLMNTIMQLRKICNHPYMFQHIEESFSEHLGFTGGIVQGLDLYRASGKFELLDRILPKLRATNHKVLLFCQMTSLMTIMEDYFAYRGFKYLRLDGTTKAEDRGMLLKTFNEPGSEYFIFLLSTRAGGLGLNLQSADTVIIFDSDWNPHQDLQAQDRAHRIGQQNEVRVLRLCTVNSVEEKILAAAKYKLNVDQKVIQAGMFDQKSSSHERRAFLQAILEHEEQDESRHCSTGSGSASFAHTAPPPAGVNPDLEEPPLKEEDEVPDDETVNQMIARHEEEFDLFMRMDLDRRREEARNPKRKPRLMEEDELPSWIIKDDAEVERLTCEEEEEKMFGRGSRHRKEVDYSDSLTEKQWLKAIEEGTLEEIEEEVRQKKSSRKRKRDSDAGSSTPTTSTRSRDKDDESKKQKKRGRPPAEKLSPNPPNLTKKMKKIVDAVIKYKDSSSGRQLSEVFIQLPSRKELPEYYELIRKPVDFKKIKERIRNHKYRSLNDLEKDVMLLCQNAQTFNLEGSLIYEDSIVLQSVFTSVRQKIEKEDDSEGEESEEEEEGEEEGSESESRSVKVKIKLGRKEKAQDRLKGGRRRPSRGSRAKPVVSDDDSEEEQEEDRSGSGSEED
Outline: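 Seed 5000 HeLa HiBit-BRG1/LgBit cells per well; treat 24 h; equilibrate 15 min at room temperature; add Nano-Glo HiBiT lytic reagent, shake 10 min, read luminescence. Percent degradation is scaled between DMSO and 2 μM reference degrader wells.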

T1 sequence (P51531 whole entry, the tested form may be a part): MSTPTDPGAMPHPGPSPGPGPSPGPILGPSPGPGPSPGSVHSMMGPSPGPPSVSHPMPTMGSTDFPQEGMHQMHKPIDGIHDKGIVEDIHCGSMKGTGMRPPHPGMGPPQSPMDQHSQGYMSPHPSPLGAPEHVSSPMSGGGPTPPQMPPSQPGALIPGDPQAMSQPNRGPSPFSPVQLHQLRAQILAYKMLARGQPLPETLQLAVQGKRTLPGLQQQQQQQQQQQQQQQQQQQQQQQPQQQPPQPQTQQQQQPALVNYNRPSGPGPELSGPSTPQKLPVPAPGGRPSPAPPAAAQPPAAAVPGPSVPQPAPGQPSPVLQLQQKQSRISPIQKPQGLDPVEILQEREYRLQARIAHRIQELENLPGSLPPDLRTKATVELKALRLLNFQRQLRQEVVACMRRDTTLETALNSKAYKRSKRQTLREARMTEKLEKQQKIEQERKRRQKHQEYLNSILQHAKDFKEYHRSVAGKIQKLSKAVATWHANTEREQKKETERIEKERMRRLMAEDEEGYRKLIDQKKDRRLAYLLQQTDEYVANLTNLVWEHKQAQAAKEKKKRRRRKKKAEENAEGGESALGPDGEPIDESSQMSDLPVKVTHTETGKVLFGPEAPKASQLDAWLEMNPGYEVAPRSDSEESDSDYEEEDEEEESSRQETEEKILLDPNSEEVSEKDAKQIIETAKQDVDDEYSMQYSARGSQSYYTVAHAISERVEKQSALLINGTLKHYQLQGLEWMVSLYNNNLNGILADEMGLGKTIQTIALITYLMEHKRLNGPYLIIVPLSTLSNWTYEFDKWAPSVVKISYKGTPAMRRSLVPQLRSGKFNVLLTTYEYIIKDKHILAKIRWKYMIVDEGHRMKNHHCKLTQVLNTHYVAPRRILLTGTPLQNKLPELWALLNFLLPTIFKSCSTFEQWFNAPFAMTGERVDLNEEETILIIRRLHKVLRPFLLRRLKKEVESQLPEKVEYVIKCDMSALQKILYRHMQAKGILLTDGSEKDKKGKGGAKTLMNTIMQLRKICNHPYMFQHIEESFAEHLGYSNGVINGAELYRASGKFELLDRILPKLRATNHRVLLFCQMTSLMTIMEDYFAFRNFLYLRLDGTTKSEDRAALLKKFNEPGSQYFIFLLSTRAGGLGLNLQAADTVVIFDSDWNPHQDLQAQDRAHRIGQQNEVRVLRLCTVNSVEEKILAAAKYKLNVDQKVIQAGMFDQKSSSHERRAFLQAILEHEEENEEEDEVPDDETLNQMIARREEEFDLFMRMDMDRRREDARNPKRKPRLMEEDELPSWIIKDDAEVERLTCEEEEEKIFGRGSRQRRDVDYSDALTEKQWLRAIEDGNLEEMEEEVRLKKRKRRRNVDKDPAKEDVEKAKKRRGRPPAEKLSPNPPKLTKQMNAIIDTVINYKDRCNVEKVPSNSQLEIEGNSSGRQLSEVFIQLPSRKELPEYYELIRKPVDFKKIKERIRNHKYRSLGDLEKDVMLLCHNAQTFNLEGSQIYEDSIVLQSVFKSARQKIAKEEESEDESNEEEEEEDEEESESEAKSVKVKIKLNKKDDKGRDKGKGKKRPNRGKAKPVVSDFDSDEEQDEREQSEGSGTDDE

Row | SMILES | BRM HiBit Degradation Maximum (%) (HiBit-BRM fusion protein) | DC50 (HiBit-BRM fusion protein) [nM] | Dmax [1] [%] | DC50 [1] [nM]
1 | Cc1ncsc1-c1ccc([C@H](C)NC(=O)[C@@H]2C[C@@H](O)CN2C(=O)[C@@H](c2cc(OCCN3CC(c4c(C)[nH]c5nnc(-c6ccccc6O)cc45)C3)no2)C(C)C)cc1 (racemic) [Compound 254, (2S,4R)-4-hydroxy-1-((R)-2-(3-(2-(3-(3-(2-hydroxyphenyl)-6-methyl-7H-pyrrolo[2,3-c]pyridazin-5-yl)azetidin-1-yl)ethoxy)isoxazol-5-yl)-3-methylbutanoyl)-N-((S)-1-(4-(4-methylthiazol-5-yl)phenyl)ethyl)pyrrolidine-2-carboxamide] | A (“A” indicates maximum degradation ≥ 75%) | > 10 | < 50 | 
2 | Cc1ncsc1-c1ccc([C@H](C)NC(=O)[C@@H]2C[C@@H](O)CN2C(=O)[C@@H](c2cc(N(C)CCN3CC(c4cc5cc(-c6ccccc6O)nnc5[nH]4)C3)no2)C(C)C)cc1 (racemic) [Compound 256] | A (“A” indicates maximum degradation ≥ 75%) | > 100 | < 50 | 
3 | Cc1ncsc1-c1ccc([C@H](C)NC(=O)[C@@H]2C[C@@H](O)CN2C(=O)[C@H](c2cc(N(C)CCN3CC(c4cc5cc(-c6ccccc6O)nnc5[nH]4)C3)no2)C(C)C)cc1 (racemic) [Compound 257, (2S,4R)-4-hydroxy-1-((S)-2-(3-((2-(3-(3-(2-hydroxyphenyl)-7H-pyrrolo[2,3-c]pyridazin-6-yl)azetidin-1-yl)ethyl)(methyl)amino)isoxazol-5-yl)-3-methylbutanoyl)-N-((S)-1-(4-(4-methylthiazol-5-yl)phenyl)ethyl)pyrrolidine-2-carboxamide] | C (“C” indicates maximum degradation < 50%) |  | < 50 | 
4 | Cc1ncsc1-c1ccc([C@H](C)NC(=O)[C@@H]2C[C@@H](O)CN2C(=O)[C@@H](c2cc(OCCN3CC[C@H](c4[nH]c5nnc(-c6ccccc6O)cc5c4C)C3)no2)C(C)C)cc1 (racemic) [Compound 258, (2S,4R)-4-hydroxy-1-((R)-2-(3-(2-((S)-3-(3-(2-hydroxyphenyl)-5-methyl-7H-pyrrolo[2,3-c]pyridazin-6-yl)pyrrolidin-1-yl)ethoxy)isoxazol-5-yl)-3-methylbutanoyl)-N-((S)-1-(4-(4-methylthiazol-5-yl)phenyl)ethyl)pyrrolidine-2-carboxamide] | A (“A” indicates maximum degradation ≥ 75%) | < 10 | > 75 | > 10
5 | Cc1ncsc1-c1ccc([C@H](C)NC(=O)[C@@H]2C[C@@H](O)CN2C(=O)[C@@H](c2cc(OCCN3CC[C@@H](c4[nH]c5nnc(-c6ccccc6O)cc5c4C)C3)no2)C(C)C)cc1 (racemic) [Compound 259, (2S,4R)-4-hydroxy-1-((R)-2-(3-(2-((R)-3-(3-(2-hydroxyphenyl)-5-methyl-7H-pyrrolo[2,3-c]pyridazin-6-yl)pyrrolidin-1-yl)ethoxy)isoxazol-5-yl)-3-methylbutanoyl)-N-((S)-1-(4-(4-methylthiazol-5-yl)phenyl)ethyl)pyrrolidine-2-carboxamide] | A (“A” indicates maximum degradation ≥ 75%) | < 10 | > 75 | > 10
6 | Cc1ncsc1-c1ccc([C@H](C)NC(=O)[C@@H]2C[C@@H](O)CN2C(=O)[C@@H](c2cc(OCCN3CCC[C@H]3c3cc4cc(-c5ccccc5O)nnc4[nH]3)no2)C(C)C)cc1 (racemic) [Compound 260, (2S,4R)-4-hydroxy-1-((R)-2-(3-(2-((S)-2-(3-(2-hydroxyphenyl)-7H-pyrrolo[2,3-c]pyridazin-6-yl)pyrrolidin-1-yl)ethoxy)isoxazol-5-yl)-3-methylbutanoyl)-N-((S)-1-(4-(4-methylthiazol-5-yl)phenyl)ethyl)pyrrolidine-2-carboxamide] | B (“B” indicates maximum degradation ≥ 50%) | > 10 | < 50 | 
7 | Cc1ncsc1-c1ccc([C@H](C)NC(=O)[C@@H]2C[C@@H](O)CN2C(=O)[C@@H](c2cc(OCCN3CCC[C@@H]3c3cc4cc(-c5ccccc5O)nnc4[nH]3)no2)C(C)C)cc1 (racemic) [Compound 261, (2S,4R)-4-hydroxy-1-((R)-2-(3-(2-((R)-2-(3-(2-hydroxyphenyl)-7H-pyrrolo[2,3-c]pyridazin-6-yl)pyrrolidin-1-yl)ethoxy)isoxazol-5-yl)-3-methylbutanoyl)-N-((S)-1-(4-(4-methylthiazol-5-yl)phenyl)ethyl)pyrrolidine-2-carboxamide] | C (“C” indicates maximum degradation < 50%) |  | < 50 | 
8 | Cc1ncsc1-c1ccc([C@H](C)NC(=O)[C@@H]2C[C@@H](O)CN2C(=O)[C@@H](c2cc(OCCN3CC[C@@H](c4c[nH]c5nnc(-c6ccccc6O)cc45)C3)no2)C(C)C)cc1 (racemic) [Compound 262, (2S,4R)-4-hydroxy-1-((R)-2-(3-(2-((S)-3-(3-(2-hydroxyphenyl)-7H-pyrrolo[2,3-c]pyridazin-5-yl)pyrrolidin-1-yl)ethoxy)isoxazol-5-yl)-3-methylbutanoyl)-N-((S)-1-(4-(4-methylthiazol-5-yl)phenyl)ethyl)pyrrolidine-2-carboxamide] | B (“B” indicates maximum degradation ≥ 50%) | > 10 | < 50 | 
9 | Cc1ncsc1-c1ccc([C@H](C)NC(=O)[C@@H]2C[C@@H](O)CN2C(=O)[C@@H](c2cc(N3CCN(CC(=O)N4CC(c5cc6cc(-c7ccccc7O)nnc6[nH]5)C4)CC3)no2)C(C)C)cc1 (racemic) [Compound 263, (2S,4R)-4-hydroxy-1-((R)-2-(3-(4-(2-(3-(3-(2-hydroxyphenyl)-7H-pyrrolo[2,3-c]pyridazin-6-yl)azetidin-1-yl)-2-oxoethyl)piperazin-1-yl)isoxazol-5-yl)-3-methylbutanoyl)-N-((S)-1-(4-(4-methylthiazol-5-yl)phenyl)ethyl)pyrrolidine-2-carboxamide] | A (“A” indicates maximum degradation ≥ 75%) | > 100 | > 75 | > 1000
10 | Cc1ncsc1-c1ccc([C@H](C)NC(=O)[C@@H]2C[C@@H](O)CN2C(=O)C(c2cc(N3CCC(C(=O)N4CC(c5cc6cc(-c7ccccc7O)nnc6[nH]5)C4)CC3)no2)C(C)C)cc1 (mixture of isomers) [Compound 264, (2S,4R)-4-hydroxy-1-((R)-2-(3-(4-(3-(3-(2-hydroxyphenyl)-7H-pyrrolo[2,3-c]pyridazin-6-yl)azetidine-1-carbonyl)piperidin-1-yl)isoxazol-5-yl)-3-methylbutanoyl)-N-((S)-1-(4-(4-methylthiazol-5-yl)phenyl)ethyl)pyrrolidine-2-carboxamide] | C (“C” indicates maximum degradation < 50%) |  | < 50 | 
11 | Cc1ncsc1-c1ccc([C@H](C)NC(=O)[C@@H]2C[C@@H](O)CN2C(=O)[C@@H](c2cc(OCCN3CCC(c4c(C)[nH]c5nnc(-c6ccccc6O)cc45)CC3)no2)C(C)C)cc1 (racemic) [Compound 265, (2S,4R)-4-hydroxy-1-[(2R)-2-[3-(2-{4-[3-(2-hydroxyphenyl)-6-methyl-7H-pyrrolo[2,3-c]pyridazin-5-yl]piperidin-1-yl}ethoxy)-1,2-oxazol-5-yl]-3-methylbutanoyl]-N-[(1S)-1-[4-(4-methyl-1,3-thiazol-5-yl)phenyl]ethyl]pyrrolidine-2-carboxamide] | A (“A” indicates maximum degradation ≥ 75%) | > 100 | < 50 | 
12 | Cc1ncsc1-c1ccc([C@H](C)NC(=O)[C@@H]2C[C@@H](O)CN2C(=O)[C@@H](c2onc(OCCN3CC(c4cc5cc(-c6ccccc6O)nnc5[nH]4)C3)c2Cl)C(C)C)cc1 (racemic) [Compound 266, (2S,4R)-1-((R)-2-(4-chloro-3-(2-(3-(3-(2-hydroxyphenyl)-7H-pyrrolo[2,3-c]pyridazin-6-yl)azetidin-1-yl)ethoxy)isoxazol-5-yl)-3-methylbutanoyl)-4-hydroxy-N-((S)-1-(4-(4-methylthiazol-5-yl)phenyl)ethyl)pyrrolidine-2-carboxamide] | A (“A” indicates maximum degradation ≥ 75%) | > 10 | > 75 | > 100
13 | Cc1ncsc1-c1ccc([C@H](C)NC(=O)[C@@H]2C[C@@H](O)CN2C(=O)[C@@H](c2cc(N3CCN(C(=O)C(=O)N4CC(c5c[nH]c6nnc(-c7ccccc7O)cc56)C4)CC3)no2)C(C)C)cc1 (racemic) [Compound 267, (2S,4R)-4-hydroxy-1-((R)-2-(3-(4-(2-(3-(3-(2-hydroxyphenyl)-7H-pyrrolo[2,3-c]pyridazin-5-yl)azetidin-1-yl)-2-oxoacetyl)piperazin-1-yl)isoxazol-5-yl)-3-methylbutanoyl)-N-((S)-1-(4-(4-methylthiazol-5-yl)phenyl)ethyl)pyrrolidine-2-carboxamide] | A (“A” indicates maximum degradation ≥ 75%) | > 100 | < 50 | 
14 | Cc1ncsc1-c1ccc([C@H](C)NC(=O)[C@@H]2C[C@@H](O)CN2C(=O)[C@@H](c2cc(N3CCN(CCC(=O)N4CC(c5cc6cc(-c7ccccc7O)nnc6[nH]5)C4)CC3)no2)C(C)C)cc1 (racemic) [Compound 268, (2S,4R)-4-hydroxy-1-[(2R)-2-{3-[4-(3-{3-[3-(2-hydroxyphenyl)-7H-pyrrolo[2,3-c]pyridazin-6-yl]azetidin-1-yl}-3-oxopropyl)piperazin-1-yl]-1,2-oxazol-5-yl}-3-methylbutanoyl]-N-[(1S)-1-[4-(4-methyl-1,3-thiazol-5-yl)phenyl]ethyl]pyrrolidine-2-carboxamide] | A (“A” indicates maximum degradation ≥ 75%) | > 100 |  | > 1000
